The test system of this data set is rodent carcinogenicity bioassays, tumor incidence. As to the kind of experiment: CCRIS carcinogenicity studies. In outline: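 NCI-built, expert-reviewed records of carcinogenicity and related test outcomes (mutagenicity, tumor promotion/inhibition) compiled from published and report sources, historical span 1985-2011, not updated.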

Activity calls are given as the source filed them. The rule behind the calls is not given here.

On to `Cc1cc2ncccc2c2nc(N)n(C)c12`, for which the carcinogen call (Species: MOUSE, Strain/Sex: C57BL/6N/FEMALE, Route: ORAL, Dose: 0, 300 PPM IN DIET FOR 92 WK (STUDY DURATION: 92 WK), Tumor Site: Type of Lesion: COLON: ADENOCARCINOMA, CECUM: ADENOCARCINOMA, LIVER: HEPATOCELLULAR ADENOMA, HEPATOCELLULAR CARCINOMA, OR FIBROSARCOMA, Tumor Site: Type of Lesion: COLON: ADENOCARCINOMA, CECUM: ADENOCARCINOMA, LIVER: HEPATOCELLULAR ADENOMA, HEPATOCELLULAR CARCINOMA, OR FIBROSARCOMA) is “active; positive”; the carcinogen call (Species: MOUSE, Strain/Sex: CDF1/FEMALE, Route: ORAL, Dose: 0, 0.04% IN THE DIET FOR STUDY DURATION (STUDY DURATION: LIFESPAN), Tumor Site: Type of Lesion: FORESTOMACH: PAPILLOMA, SQUAMOUS CELL CARCINOMA, LIVER: HEPATOCELLULAR ADENOMA, HEPATOCELLULAR CARCINOMA) is “active; positive”; the carcinogen call (Species: MOUSE, Strain/Sex: CDF1/MALE, Route: ORAL, Dose: 0, 0.04% IN THE DIET FOR STUDY DURATION (STUDY DURATION: LIFESPAN), Tumor Site: Type of Lesion: FORESTOMACH: PAPILLOMA, SQUAMOUS CELL CARCINOMA, LIVER: CHOLANGIOCARCINOMA) was “active; positive”; the carcinogen call (Species: RAT, Strain/Sex: F344/MALE, Route: ORAL, Dose: 0, 0.03% IN DIET (DAILY INTAKE: 3.8 MG) FOR 286 D (STUDY DURATION: 286 D), Tumor Site: Type of Lesion: ZYMBAL GLAND: SQUAMOUS CELL CARCINOMA, ORAL CAVITY: SQUAMOUS CELL CARCINOMA OR SEBACEOUS SQUAMOUS CELL CARCINOMA, COLON:, Tumor Site: Type of Lesion: ZYMBAL GLAND: SQUAMOUS CELL CARCINOMA, ORAL CAVITY: SQUAMOUS CELL CARCINOMA OR SEBACEOUS SQUAMOUS CELL CARCINOMA, COLON:) is “active; positive”; the carcinogen call (Species: RAT, Strain/Sex: F344/MALE, Route: ORAL, Dose: 0, 0.03% IN DIET (DAILY INTAKE: 5.6 MG) FOR 286 D (STUDY DURATION: 286 D), Tumor Site: Type of Lesion: ZYMBAL GLAND: SQUAMOUS CELL CARCINOMA, ORAL CAVITY: SQUAMOUS CELL CARCINOMA OR SEBACEOUS SQUAMOUS CELL CARCINOMA, COLON:, Tumor Site: Type of Lesion: ZYMBAL GLAND: SQUAMOUS CELL CARCINOMA, ORAL CAVITY: SQUAMOUS CELL CARCINOMA OR SEBACEOUS SQUAMOUS CELL CARCINOMA, COLON:) was “active; positive”; the carcinogen call (Species: RAT, Strain/Sex: WISTAR/MALE, Route: INTRAGASTRIC, Dose: 0, 10 MG/KG IN ACIDIFIED WATER 1/D FOR 2 WK (STUDY DURATION: 58 WK), Tumor Site: Type of Lesion: ZYMBAL GLAND: CARCINOMA) is “active; positive”.

Turning to `CC(=O)Nc1c(I)c(C(=O)N[C@@H](C=O)[C@@H](O)[C@H](O)[C@H](O)CO)c(I)c(N(C)C(C)=O)c1I`, where the note is “Species: MOUSE, Strain/Sex: ICR/FEMALE, Route: INTRABRONCHIAL, Dose: 0, 75 µL ONCE ADMINISTERED TO WEANLING MICE (STUDY DURATION: LIFETIME), Tumor Site: Type of Lesion: LUNG: TUMOR”, the carcinogen call is “active; positive”.

As for `O=[N+]([O-])NC1=NCCN1Cc1ccc(Cl)nc1`, the carcinogen call reads like this: (Species: Mouse, Strain/Sex: B6C3F1/Female (60/Group), Route: Oral, Dose: 0, 100, 330, 1000 ppm and 0, 2000 ppm (2 related studies) of 95.3% imidacloprid in diet for 24 mo, study duration 24 mo, Dose: 0, 100, 330, 1000 ppm and 0, 2000 ppm (2 related studies) of 95.3% imidacloprid in diet for 24 mo, study duration 24 mo) “inactive; negative”; (Species: Mouse, Strain/Sex: B6C3F1/Male (60/Group), Route: Oral, Dose: 0, 100, 330, 1000 ppm and 0, 2000 ppm (2 related studies) of 95.3% imidacloprid in diet for 24 mo, study duration 24 mo, Dose: 0, 100, 330, 1000 ppm and 0, 2000 ppm (2 related studies) of 95.3% imidacloprid in diet for 24 mo, study duration 24 mo) “inactive; negative”; (Species: Rat, Strain/Sex: Wistar/Female (60/Group), Route: Oral, Dose: 0, 100, 300, 900 ppm and 0;1800 ppm (2 related studies) of 94.3% imidacloprid in diet for 24 mo, study duration 24 mo, Dose: 0, 100, 300, 900 ppm and 0;1800 ppm (2 related studies) of 94.3% imidacloprid in diet for 24 mo, study duration 24 mo) “inactive; negative”; (Species: Rat, Strain/Sex: Wistar/Male (60/Group), Route: Oral, Dose: 0, 100, 300, 900 ppm and 0, 1800 ppm (2 related studies) of 94.3% imidacloprid in diet for 24 mo, study duration 24 mo, Dose: 0, 100, 300, 900 ppm and 0, 1800 ppm (2 related studies) of 94.3% imidacloprid in diet for 24 mo, study duration 24 mo, Tumor Site: Type of Lesion: Liver: Cholangiocellular carcinoma (2/60 at 1800 ppm vs 0/60 all other groups)) “active; positive”.

Regarding `Cc1ccc(N=Nc2c(O)c(C(=O)O)cc3ccccc23)c(S(=O)(=O)O)c1`, the carcinogen call runs as follows: (Species: MOUSE, Strain/Sex: ICR/FEMALE, Route: DERMAL, Dose: 0, 1 MG IN 0.1 ML DISTILLED WATER 2/WK FOR A MEAN TOTAL DOSE OF 130.6 MG (STUDY DURATION: 18 MO)) “inactive; negative”; (Species: MOUSE, Strain/Sex: ICR/MALE, Route: DERMAL, Dose: 0, 1 MG IN 0.1 ML DISTILLED WATER 2/WK FOR A MEAN TOTAL DOSE OF 130.6 MG (STUDY DURATION: 18 MO)) “inactive; negative”.

`CCOC(=O)NCCOc1ccc(Oc2ccccc2)cc1`: the carcinogen call is “inactive; negative” (Species: Mouse, Strain/Sex: CD-1/Female (50/Group), Route: Oral, Dose: 0, 30, 110, 420 ppm of 96.6% fenoxycarb in diet for 80 wk, study duration 80 wk, Dose: 0, 30, 110, 420 ppm of 96.6% fenoxycarb in diet for 80 wk, study duration 80 wk); “active; positive” (Species: Mouse, Strain/Sex: CD-1/Male (50/Group), Route: Oral, Dose: 0, 30, 110, 420 ppm of 96.6% fenoxycarb in diet for 80 wk, study duration 80 wk, Dose: 0, 30, 110, 420 ppm of 96.6% fenoxycarb in diet for 80 wk, study duration 80 wk, Tumor Site: Type of Lesion: Lung: alveolar/bronchial adenomas and carcinomas, significant at 420 ppm only); “inactive; negative” (Species: Rat, Strain/Sex: Crl:CD(SD)BR/Female (50/Group), Route: Oral, Dose: 0, 200, 600, 1800 ppm of 96.6% fenoxycarb in diet for 104 wk, study duration 104 wk, Dose: 0, 200, 600, 1800 ppm of 96.6% fenoxycarb in diet for 104 wk, study duration 104 wk); “inactive; negative” (Species: Rat, Strain/Sex: Crl:CD(SD)BR/Male (50/Group), Route: Oral, Dose: 0, 200, 600, 1800 ppm of 96.6% fenoxycarb in diet for 104 wk, study duration 104 wk, Dose: 0, 200, 600, 1800 ppm of 96.6% fenoxycarb in diet for 104 wk, study duration 104 wk).

Regarding `Cn1c([N+](=O)[O-])cnc1C1=NOC2CCCCC12` (stereo not drawn), the carcinogen call (Species: MOUSE, Strain/Sex: SWISS/FEMALE, Route: INTRAPERITONEAL, Dose: 0, 80 UG/G BW 1/D FOR 30 DAYS (STUDY DURATION: LIFETIME), Tumor Site: Type of Lesion: LYMPHATIC SYSTEM: LYMPHOMA) was “active; positive”.

As for `COC(=O)Nc1nc2ccccc2[nH]1`, the carcinogen call reads like this: (Species: Mouse, Strain/Sex: CD-1/Female (80/sex/dose), Route: Oral, Dose: 0, 500, 1500, 7500 ppm in feed for 2 yr, Dose: 0, 500, 1500, 7500 ppm in feed for 2 yr, Tumor Site: Type of Lesion: Liver: Hepatocellular adenoma (0/68, 5/62, 5/66, 3/71), Hepatocellular carcinoma (2/68, 4/62, 15/66, 12/71), Combined (2, Tumor Site: Type of Lesion: Liver: Hepatocellular adenoma (0/68, 5/62, 5/66, 3/71), Hepatocellular carcinoma (2/68, 4/62, 15/66, 12/71), Combined (2) “active; positive: purity 99.3%”; (Species: Mouse, Strain/Sex: CD-1/Male (80/sex/dose); Route: Oral; Dose: 0; 500; 1500; 7500 ppm in feed for 2 yr except for highest dose where animals terminated at week 73 with 29% survival); Dose: 0; 500; 1500; 7500 ppm in feed for 2 yr except for highest dose where animals terminated at week 73 with 29% survival)) “inactive; negative: purity 99.3%”.

Consider `O=NN1CCC(=O)NC1=O`, for which the carcinogen call is, setting by setting: (Species: RAT, Strain/Sex: WISTAR/FEMALE, Route: ORAL, Dose: 0, 450 MG/L CITRATE BUFFER SOLUTION IN DRINKING WATER 5D/WK FOR AN AVERAGE TOTAL DOSE OF 0, 950 MG (STUDY DURATION: 28 W, Dose: 0, 450 MG/L CITRATE BUFFER SOLUTION IN DRINKING WATER 5D/WK FOR AN AVERAGE TOTAL DOSE OF 0, 950 MG (STUDY DURATION: 28 W, Tumor Site: Type of Lesion: LIVER: CARCINOMA) “active; positive”; (Species: RAT, Strain/Sex: WISTAR/MALE, Route: ORAL, Dose: 0, 450 MG/L CITRATE BUFFER SOLUTION IN DRINKING WATER 5D/WK FOR AN AVERAGE TOTAL DOSE OF 0, 1250 MG (STUDY DURATION: 32, Dose: 0, 450 MG/L CITRATE BUFFER SOLUTION IN DRINKING WATER 5D/WK FOR AN AVERAGE TOTAL DOSE OF 0, 1250 MG (STUDY DURATION: 32, Tumor Site: Type of Lesion: LIVER: CARCINOMA, KIDNEY: ADENOMA) “active; positive”.

With `C1CSCN1`, the carcinogen call (Species: MOUSE, Strain/Sex: CD-1/FEMALE, Route: DERMAL, Dose: 0, 50 UMOL/0.1 ML DMSO 2/WK FOR 5 WK FOLLOWED 1 WK LATER BY 0.1 ML ACETONE 2/WK FOR 47 WK (STUDY DURATION: 52 WK)) was “inactive; negative”.

Values taken from PubChem BioAssay AID1259411 (Chemical Carcinogenesis Research Information System (CCRIS), 2018).
